Source: article PMC5872150 (ACS chemical neuroscience, 2017)
Counter-ions that a name gives are not always drawn. Like-named read-outs stand apart in the source and are kept apart here.

Experiments:
[1] = tested on: pilocarpine-induced seizures in C57BL/6 mice; experiment: Pilocarpine-induced seizures; assay type: in vivo, mouse
[2] = tested on: CHO-hM1 cells; experiment: Ca2+ assay features: Fluo-4 fluorescent signal of CHO-hM1 cells; assay type: cell-based, Chinese hamster; details: bath application
[3] = biological target: human α7 nAChR (Homo sapiens, UniProt P36544); details: for inhibition of acetylcholine-induced inward current: acetylcholine 1 mM
Sequence of human α7 nAChR (P36544 23-502): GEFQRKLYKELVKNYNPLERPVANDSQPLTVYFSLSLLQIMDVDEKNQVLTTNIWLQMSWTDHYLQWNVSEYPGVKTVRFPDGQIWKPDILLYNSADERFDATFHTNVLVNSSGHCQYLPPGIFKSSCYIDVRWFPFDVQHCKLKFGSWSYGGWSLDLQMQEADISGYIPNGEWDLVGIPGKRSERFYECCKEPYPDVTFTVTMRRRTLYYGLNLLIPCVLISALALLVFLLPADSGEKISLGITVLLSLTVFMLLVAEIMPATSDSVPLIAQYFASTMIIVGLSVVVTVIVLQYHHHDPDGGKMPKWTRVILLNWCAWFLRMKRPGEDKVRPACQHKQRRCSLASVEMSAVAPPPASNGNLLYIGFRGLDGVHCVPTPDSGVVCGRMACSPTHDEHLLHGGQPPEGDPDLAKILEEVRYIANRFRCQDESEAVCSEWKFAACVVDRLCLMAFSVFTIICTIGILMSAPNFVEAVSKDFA

[4] = tested on: pilocarpine-induced total fluid secretion in C57BL/6 mice; details: s.c., pilocarpine 50 mg/kg i.p.
[5] = biological target: T1, human M1 mAChR (Homo sapiens, UniProt P11229)
T1 sequence (P11229 1-460): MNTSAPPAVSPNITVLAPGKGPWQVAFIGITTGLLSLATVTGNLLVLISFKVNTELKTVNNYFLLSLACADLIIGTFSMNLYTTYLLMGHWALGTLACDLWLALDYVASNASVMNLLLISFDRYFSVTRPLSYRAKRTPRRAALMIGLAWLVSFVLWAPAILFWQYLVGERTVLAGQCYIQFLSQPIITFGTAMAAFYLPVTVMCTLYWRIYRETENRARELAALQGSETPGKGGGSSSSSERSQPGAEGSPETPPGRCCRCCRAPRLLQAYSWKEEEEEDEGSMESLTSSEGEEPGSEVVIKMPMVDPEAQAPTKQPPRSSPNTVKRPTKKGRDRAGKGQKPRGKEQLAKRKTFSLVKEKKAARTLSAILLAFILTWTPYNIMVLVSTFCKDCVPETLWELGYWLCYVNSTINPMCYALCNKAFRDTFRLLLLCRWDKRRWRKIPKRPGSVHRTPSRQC

CN1[C@@H]2CC[C@H]1C[C@@H](OC(=O)C(CO)c1ccccc1)C2 (some centres unmarked) [atropine sulfate, Atropine sulfate monohydrate, reference compound]
effect on pilocarpine-induced seizures ([1]; 3 mg/kg s.c. 25 min before pilocarpine 278 mg/kg): blocked the development of seizures in every mouse

C/C=C(/C)C(=O)O[C@H]1C(C)=C2[C@H]([C@@H]1OC(=O)CCCCCCC)[C@@](C)(OC(C)=O)C[C@H](OC(=O)CCC)[C@@]1(O)[C@H]2OC(=O)[C@@]1(C)O [Thapsigargin]
effect on Ca2+-dependent fluorescent counts ([2]; thapsigargin 1 μM): smaller and slower increase in the fluorescent counts

Nc1ncnc2c1ncn2[C@@H]1O[C@H](COP(=O)(O)OP(=O)(O)OP(=O)(O)O)[C@@H](O)[C@H]1O [ATP]
effect on Ca2+-dependent fluorescent counts ([2]; ATP 100 μM): rapidly increased the fluorescent counts

ethylatropine bromide
inhibition of acetylcholine-induced inward current ([3]; 3 μM, n = 3): 1.2 ± 8%
inhibition of acetylcholine-induced inward current ([3]; 30 μM, n = 5): 29 ± 3%
inhibition of acetylcholine-induced inward current ([3]; 300 μM, n = 4): 46 ± 2%
fold less potent than atropine sulfate at α7 nicotinic receptors ([3]; ratio of estimated IC50s): ~300 fold
approximate IC50 for attenuation of pilocarpine-induced total secretion [4]: ~0.3 mg/kg
fold less potent than atropine at human M1 muscarinic receptors [5]: approximately 3.3 fold
time to behavior score 3 after pilocarpine administration ([1]; 100 mg/kg s.c. 25 min before pilocarpine 278 mg/kg, all six mice): ≤ 30 min
effect on pilocarpine-induced seizures ([1]; 100 mg/kg s.c. 25 min before pilocarpine 278 mg/kg, six mice): experienced at least one tonic seizure
